The values that follow come from patent US20080161268A1, “[…] AMMONIUM SALT ANTIBACTERIAL AND WATER-BORNE COATING MATERIAL HAVING […] CONTAINING THE SAME” (COMPAL ELECTRONICS, INC., priority 2006, published 2008).

Data set [1] can be described thus: Test of the stability of antibacterial in latex paint. It counts as physicochemical. The conditions noted are these: pH about 7. As to the method: Four quaternary ammonium salt antibacterials A, B, C, and D shown in table 1 were prepared respectively, in which A was a quaternary ammonium salt antibacterial having the siloxane structure, and the other three antibacterials B, C, and D were quaternary ammonium salt antibacterials having no siloxane structure. Then, the four antibacterials A, B, C, and D were respectively added into a latex paint, and formulated to have a concentrations of 500, 1500, 2500, and 5000 ppm, and the pH value was adjusted to about 7. Changes of the antibacterials in the latex paint were observed.

Data set [2] is described as follows: Potential measurement (surface potential, Zetasizer Nano ZS). The class given is physicochemical. The conditions noted are these: concentration about 5%, pH 0-7, FIG. 1. As to the method:
The methanol solution including 45% of the organic quaternary ammonium salt A having the siloxane structure and the methanol solution including 45% of the organic quaternary ammonium salt Bhaving no siloxane structure were respectively adjusted to a pH value of 0-7 by 0.1 N HCl and 0.1 N NaOH, and formulated to have a concentration of about 5%. The surface potentials were measured with Zetasizer, Nano ZS (Malvern, United Kingdom).

A further data set relates to Bacteria. The data set can be described thus: Antibiotic experiment according to Japanese Standards Testing Method (JISZ 2801-2000). It counts as cell-based. The conditions noted are these: for Antimicrobial Activity Value: versus control group (neat cement paint). The protocol: After formulating the organic quaternary ammonium salt having the siloxane structure to have a concentration of 5% and adjusting the pH value to be 7, an antibiotic experiment was performed according to Japanese Standards Testing Method (JISZ 2801-2000).

As to `CCCCCCCCCCCCCCCCCC[N+](C)(C)[Si](OC)(OC)OC.[Br-]` [Antibacterial A], the “Miscibility in the latex paint” value in data set [1] (500-5000 ppm) was “good miscibility”. In addition, the “Changes of the antibacterial in the latex paint” value in data set [1] (content of antibacterial 500 ppm), in data set [1] (content of antibacterial 1500 ppm), in data set [1] (content of antibacterial 2500 ppm) and in data set [1] (content of antibacterial 5000 ppm) was “miscible” in each case. Also, the “Electronegativity (surface potential) versus pH value” in data set [2] is given as “increased with the increment of pH value”. For the same compound, the “Bacteriostatic Ratio” value in the data set on Bacteria (0 h) is “less than 90%”; with Bacteria (3 h), 99%; in the data set on Bacteria (24 h) it was 99.99%; with Bacteria (concentration 5%, pH 7, time not given) it was “greater than 99.99%”. Moreover, the “Bacteria count at 0 h * 3 sheets” value in the data set on Bacteria (0 h, concentration 5%, pH 7) is reported as 3.73 × 10^5. For the same compound, the figures for the “Antimicrobial Activity Value” in the data set on Bacteria (0 h), in the data set on Bacteria (3 h) and in the data set on Bacteria (24 h) were 0.47, 2.95 and 4.89, respectively. Also, the “Bacteria count at 3 h * 3 sheets” value in the data set with Bacteria (3 h, concentration 5%, pH 7) is 1.48 × 10^3. In addition, the “Bacteria count at 24 h * 3 sheets” value in the data set with Bacteria (24 h, concentration 5%, pH 7) is listed as <10.
